Results on six compounds are retold here after patent US6123943A, “NF-KB activity inhibitor” (Kaken Shoyaku Co., Ltd., priority 1997, dated 2000).

Each structure is given as a SMILES string.

Data set [1] has as its system NF-κB. As to the kind of experiment: Gel shift assay: inhibition of NF-κB binding activation in U1 cells. The class given is cell-based, human. The following applies: for inhibition at 0.1 µg/mL / inhibition at 1 µg/mL: Homo sapiens. The method, then:
Inhibition Action on NF-κB Binding Activation
In order to examine the action of a test compound cepharanthine to inhibit NF-κB binding activation, U1 [a cell strain derived from HIV-1 (HIV type 1) latent infection human monocyte] cells were stimulated or not stimulated with phorbol 12-myristate 13-acetate (PMA) in the presence or absence of the test compound, and the following assay was carried out using a nucleoprotein extract obtained from the resulting cells.
Gel shift assay was carried out using an NF-κB probe of HIV-1. A double-stranded DNA fragment of an NF-κB site-like sequence, 5'-AGTTGAGGGGACTTTCCCAGGC-3' from the transcription initiation point, was used as the NF-κB probe of HIV-1. The 5'-terminus of the probe was radiation-labeled with ^32 p in the usual way using [γ-^32 P]ATP and polynucleotide kinase. […] At the same time, a sample in which a large quantity of non-labeled probe was added to the reaction solution was prepared and the same reaction was carried out as a competitive assay. Thereafter, the ^32 P-labeled NF-κB probe was added thereto to carry out 20 minutes of binding reaction at room temperature. After the reaction, 4% unmodified polyacrylamide gel electrophoresis was carried out in order to separate the DNA-NF-κB complex from free oligonucleotide. The gel was subjected to autoradiography, and NF-κB in the nucleoprotein extract was determined by an image analyzer (BIO-RAD, Model GS-700 Imaging Densitometer).
The action of the test compound to inhibit activation of NF-κB binding by PMA stimulation of U1 cells (inhibition ratio, %) is shown in Table 1.
V3: Cepharanthine control; reaction (2.5 hours) of U1 cells in the
presence of 0.1 μg/ml of cepharanthine
V4: Cepharanthine control; reaction (2.5 hours) of U1 cells in the
presence of 1 μg/ml of cepharanthine
V6: Reaction (2 hours) of U1 cells in the presence of 0.1 μg/ml of
cepharanthine + stimulation (0.5 hour) with 10 ng/ml of PMA
V7: Reaction (2 hours) of U1 cells in the presence of 1 μg/ml of
**: V6, V7, V8 and V9 vs. V5

The test system of data set [2] is HIV-1 LTR. The data set can be described thus: HIV-1 LTR CAT assay: inhibition of HIV-1 LTR transcription activity in HeLa cells. Format: cell-based. The following applies: 48 hours; for % Inhibition: vs. V3 (PMA). The method, then: Inhibition action on HIV-1 LTR transcription activity
In order to examine effect of a test compound cepharanthine on the HIV-1 transcription activity, CAT assay was carried out by the following method.
A plasmid in which chloramphenicol acetyltransferase (CAT) gene has been linked to the downstream of HIV-1 LTR gene was introduced by lipofection into HeLa cells adjusted to a density of 1×10^6 cells, and the resulting cells were cultured in the presence or absence of the test compound and phorbol 12-myristate 13-acetate (PMA). After 48 hours of the culturing, the cells were collected and washed to prepare a cell extract using a freeze-thawing method. The thus prepared cell extract was allowed to react with acetyl CoA and [^14 C]-labeled chloramphenicol (CM), and the thus formed acetyl[^14 C]CM was separated by a thin layer chromatography, subjected to autoradiography and then […] measured using an image analyzer (BIO-RAD, Model GS-700 Imaging Densitometer).
V4: HeLa cells were cultured in the presence of cepharanthine (0.1
μg/ml) + PMA (10 ng/ml)
V5: HeLa cells were cultured in the presence of cepharanthine (1 μg/ml

Data set [3] in a line: Acute toxicity test (LD50). The following applies: mouse, in vivo, male mice.
Where [4] appears, read: 0.1 μg/ml, 2 hours + PMA 10 ng/ml, 0.5 hour.
Setting [5] is: 1 μg/ml, 2 hours + PMA 10 ng/ml, 0.5 hour.

Regarding `COc1ccc2cc1Oc1ccc(cc1)C[C@H]1c3c(cc4c(c3Oc3cc5c(cc3OC)CCN(C)[C@@H]5C2)OCO4)CCN1C` [cepharanthine], the Area is on record as 70.45 mm × mm in data set [1] (setting [4]); 70.53 mm × mm in data set [1] (0.1 μg/ml, 2.5 hours, no PMA); 50.63 mm × mm in data set [1] (setting [5]); 69.15 mm × mm in data set [1] (1 μg/ml, 2.5 hours, no PMA); 54.31 mm × mm in data set [2] (0.1 μg/ml + PMA (10 ng/ml)); 41.00 mm × mm in data set [2] (1 μg/ml + PMA (10 ng/ml)). Besides, the “Average (OD)” value came to 0.491 OD in data set [1] (setting [4]); 0.447 OD in data set [1] (0.1 μg/ml, 2.5 hours, no PMA); 0.490 OD in data set [1] (setting [5]); 0.442 OD in data set [1] (1 μg/ml, 2.5 hours, no PMA); 0.892 OD in data set [2] (0.1 μg/ml + PMA (10 ng/ml)); 0.867 OD in data set [2] (1 μg/ml + PMA (10 ng/ml)). For the same compound, the Labeled amount in data set [1] (setting [4]) was found to be 34.59 OD × mm × mm; in data set [1] (0.1 μg/ml, 2.5 hours, no PMA), 31.53 OD × mm × mm; in data set [1] (setting [5]), 24.81 OD × mm × mm; in data set [1] (1 μg/ml, 2.5 hours, no PMA), 30.56 OD × mm × mm; in data set [2] (0.1 μg/ml + PMA (10 ng/ml)), 48.44 OD × mm × mm; in data set [2] (1 μg/ml + PMA (10 ng/ml)) it was 35.55 OD × mm × mm. Besides, the inhibition at 0.1 µg/mL in data set [1] (0.1 μg/ml, 2 hours + PMA 10 ng/ml, 0.5 hour, vs. V5 (PMA)) stood at 24.7%; in data set [1] (0.1 μg/ml, 2.5 hours, no PMA, vs. V2 (untreated U1 cells)) it was 10.9%. Besides, the inhibition at 1 µg/mL in data set [1] (1 μg/ml, 2 hours + PMA 10 ng/ml, 0.5 hour, vs. V5 (PMA)) was 46%; in data set [1] (1 μg/ml, 2.5 hours, no PMA, vs. V2 (untreated U1 cells)), 13.7%. The “% Inhibition” value in data set [2] (0.1 μg/ml + PMA (10 ng/ml)) came out at 33.1%; in data set [2] (1 μg/ml + PMA (10 ng/ml)) it was 50.9%. Further, the 50% lethal dose (LD50) came to 47 mg/kg in data set [3] (intravenous) and 3410 mg/kg in data set [3] (oral).
For `COc1ccc2cc1Oc1ccc(cc1)C[C@H]1c3c(cc(OC)c(O)c3Oc3cc4c(cc3OC)CCN(C)[C@@H]4C2)CCN1C` [homoaromoline], in data set [3] (intravenous), the LD50 was determined as 42.4 mg/kg.
For the compound `COc1ccc2cc1Oc1ccc(cc1)C[C@H]1c3cc(c(OC)cc3CCN1C)Oc1c(OC)c(OC)cc3c1[C@@H](C2)N(C)CC3` [isotetrandrine], the LD50 in data set [3] (intravenous) turned out to be 32.5 mg/kg.
On the same count and under the same terms, the result for `COc1cc2c3cc1Oc1c4c(cc5c1[C@H](Cc1ccc(cc1)Oc1cc(ccc1O)C[C@H]3N(C)CC2)N(C)CC5)OCO4` [cepharanoline] reads 34.3 mg/kg; that for `COc1cc2c3cc1Oc1c(OC)c(OC)cc4c1[C@@H](Cc1ccc(O)c(c1)Oc1ccc(cc1)C[C@@H]3N(C)CC2)N(C)CC4` [berbamine], 18.8 mg/kg.
With `COc1cc2c3c(c1OC)Oc1ccc(cc1)C[C@@H]1c4c(cc(OC)c(OC)c4Oc4ccc(cc4)C[C@H]3N(C)CC2)CCN1C` [cycleanine], the LD50 in data set [3] (intravenous) amounted to 62.5 mg/kg.
